Data as given in patent US20230250066A1, “HERBICIDAL CINNOLINE DERIVATIVES” (SYNGENTA CROP PROTECTION AG, priority 2020, published 2023).

Assays:
Type in all cases: in vivo
[1] = system: Echinochloa crus-galli (ECHCG); experiment: Pre-emergence herbicidal test; details: 1000 g/ha, evaluated after 13 days
Setaria faberi (SETFA) [2] = experiment: Pre-emergence herbicidal test; details: 1000 g/ha, evaluated after 13 days
[3] = system: Amaranthus retoflexus (AMARE); experiment: Pre-emergence herbicidal test; details: 1000 g/ha, evaluated after 13 days
Zea mays (ZEAMX) [4] = experiment: Pre-emergence herbicidal test; details: 1000 g/ha, evaluated after 13 days
[5] = system: Ipomoea hederacea (IPOHE); experiment: Pre-emergence herbicidal test; details: 1000 g/ha, evaluated after 13 days
[6] = system: Echinochloa crus-galli (ECHCG); experiment: Post-emergence herbicidal test; details: 1000 g/ha unless otherwise stated, evaluated after 13 days
Procedure, shortened: (§1)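 Scored 0–5 for percent damage (0=0%, 5=81-100%) 13 days after spraying, typically at 1000 g/ha in acetone/water (50:50) plus 0.5% Tween 20. Post-emergence plants treated at 8 days old, grown at 24° C/16° C day/night, 14 h light, 65% humidity, watered twice daily.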

Setaria faberi (SETFA) [7] = experiment: Post-emergence herbicidal test; details: 1000 g/ha unless otherwise stated, evaluated after 13 days
Procedure, shortened: as §1

[8] = system: Abutilon theophrasti (ABUTH); experiment: Post-emergence herbicidal test; details: 1000 g/ha unless otherwise stated, evaluated after 13 days
Procedure, shortened: as §1

[9] = system: Amaranthus retoflexus (AMARE); experiment: Post-emergence herbicidal test; details: 1000 g/ha unless otherwise stated, evaluated after 13 days
Procedure, shortened: as §1

[10] = system: Ipomoea hederacea (IPOHE); experiment: Post-emergence herbicidal test; details: 1000 g/ha unless otherwise stated, evaluated after 13 days
Procedure, shortened: as §1

Zea mays (ZEAMX) [11] = experiment: Post-emergence herbicidal test; details: 1000 g/ha unless otherwise stated, evaluated after 13 days
Procedure, shortened: as §1

[12] = system: Abutilon theophrasti (ABUTH); experiment: Pre-emergence herbicidal test; details: 1000 g/ha, evaluated after 13 days

CCOC(=O)c1nn(-c2ccc(OC(F)(F)F)cc2)c2cccc([S+]([O-])C3CC3)c2c1=O (stereo not drawn) [Compound P32, ethyl 5-cyclopropylsulfinyl-4-oxo-1-[4-(trifluoromethoxy)phenyl]cinnoline-3-carboxylate]
percentage damage caused to the plant, five-point scale, ECHCG [1]: 1 (1=10-20%)
percentage damage caused to the plant, five-point scale, SETFA (Setaria faberi (SETFA) [2]): 2 (2=21-40%)
percentage damage caused to the plant, five-point scale, AMARE [3]: 0 (0=0%)
percentage damage caused to the plant, five-point scale, ZEAMX (Zea mays (ZEAMX) [4]): 0 (0=0%)
percentage damage caused to the plant, five-point scale, IPOHE [5]: 0 (0=0%)
percentage damage caused to the plant, ECHCG (five-point scale) [6]: 1 (1=10-20%)
percentage damage caused to the plant, SETFA (five-point scale) (Setaria faberi (SETFA) [7]): 1 (1=10-20%)
percentage damage caused to the plant, ABUTH (five-point scale) [8]: 0 (0=0%)
percentage damage caused to the plant, AMARE (five-point scale) [9]: 0 (0=0%)
percentage damage caused to the plant, IPOHE (five-point scale) [10]: 0 (0=0%)
percentage damage caused to the plant, ZEAMX (five-point scale) (Zea mays (ZEAMX) [11]): 1 (1=10-20%)
percentage damage caused to the plant, five-point scale, ABUTH [12]: 0 (0=0%)

C=CC(C)OC(=O)c1nn(-c2ccc(OC(F)(F)F)cc2)c2cccc(S(C)(=O)=O)c2c1=O (stereo not drawn) [Compound P64, 1-methylallyl 5-methylsulfonyl-4-oxo-1-[4-(trifluoromethoxy)phenyl]cinnoline-3-carboxylate]
percentage damage caused to the plant, five-point scale, ECHCG [1]: 4 (4=61-80%)
percentage damage caused to the plant, five-point scale, SETFA (Setaria faberi (SETFA) [2]): 5 (5=81-100%)
percentage damage caused to the plant, five-point scale, AMARE [3]: 0 (0=0%)
percentage damage caused to the plant, five-point scale, ZEAMX (Zea mays (ZEAMX) [4]): 0 (0=0%)
percentage damage caused to the plant, five-point scale, IPOHE [5]: 0 (0=0%)
percentage damage caused to the plant, ECHCG (five-point scale) [6]: 3 (3=41-60%)
percentage damage caused to the plant, SETFA (five-point scale) (Setaria faberi (SETFA) [7]): 4 (4=61-80%)
percentage damage caused to the plant, ABUTH (five-point scale) [8]: 1 (1=10-20%)
percentage damage caused to the plant, AMARE (five-point scale) [9]: 0 (0=0%)
percentage damage caused to the plant, IPOHE (five-point scale) [10]: 0 (0=0%)
percentage damage caused to the plant, ZEAMX (five-point scale) (Zea mays (ZEAMX) [11]): 1 (1=10-20%)
percentage damage caused to the plant, five-point scale, ABUTH [12]: 0 (0=0%)

CS(=O)(=O)c1cc(Br)cc2c1c(=O)c(C(=O)O)nn2-c1ccc(OC(F)(F)F)cc1 [Compound P13, 7-bromo-5-methylsulfonyl-4-oxo-1-[4-(trifluoromethoxy)phenyl]cinnoline-3-carboxylic acid]
percentage damage caused to the plant, five-point scale, ECHCG [1]: 0 (0=0%)
percentage damage caused to the plant, five-point scale, SETFA (Setaria faberi (SETFA) [2]): 0 (0=0%)
percentage damage caused to the plant, five-point scale, AMARE [3]: 0 (0=0%)
percentage damage caused to the plant, five-point scale, ZEAMX (Zea mays (ZEAMX) [4]): 0 (0=0%)
percentage damage caused to the plant, five-point scale, IPOHE [5]: 0 (0=0%)
percentage damage caused to the plant, ECHCG (five-point scale) [6]: 1 (1=10-20%)
percentage damage caused to the plant, SETFA (five-point scale) (Setaria faberi (SETFA) [7]): 1 (1=10-20%)
percentage damage caused to the plant, ABUTH (five-point scale) [8]: 0 (0=0%)
percentage damage caused to the plant, AMARE (five-point scale) [9]: 1 (1=10-20%)
percentage damage caused to the plant, IPOHE (five-point scale) [10]: 0 (0=0%)
percentage damage caused to the plant, ZEAMX (five-point scale) (Zea mays (ZEAMX) [11]): 1 (1=10-20%)
percentage damage caused to the plant, five-point scale, ABUTH [12]: 1 (1=10-20%)

O=C(O)c1nn(-c2ccc(OC(F)(F)F)cc2)c2cccc(S(=O)(=O)CC(F)(F)F)c2c1=O [Compound P35, 4-oxo-5-(2,2,2-trifluoroethylsulfonyl)-1-[4-(trifluoromethoxy)phenyl]cinnoline-3-carboxylic acid]
percentage damage caused to the plant, five-point scale, ECHCG [1]: 0 (0=0%)
percentage damage caused to the plant, five-point scale, SETFA (Setaria faberi (SETFA) [2]): 0 (0=0%)
percentage damage caused to the plant, five-point scale, AMARE [3]: 0 (0=0%)
percentage damage caused to the plant, five-point scale, ZEAMX (Zea mays (ZEAMX) [4]): 1 (1=10-20%)
percentage damage caused to the plant, five-point scale, IPOHE [5]: 0 (0=0%)
percentage damage caused to the plant, ECHCG (five-point scale) [6]: 1 (1=10-20%)
percentage damage caused to the plant, SETFA (five-point scale) (Setaria faberi (SETFA) [7]): 2 (2=21-40%)
percentage damage caused to the plant, ABUTH (five-point scale) [8]: 1 (1=10-20%)
percentage damage caused to the plant, AMARE (five-point scale) [9]: 1 (1=10-20%)
percentage damage caused to the plant, IPOHE (five-point scale) [10]: 0 (0=0%)
percentage damage caused to the plant, ZEAMX (five-point scale) (Zea mays (ZEAMX) [11]): 1 (1=10-20%)
percentage damage caused to the plant, five-point scale, ABUTH [12]: 1 (1=10-20%)

CCS(=O)(=O)c1cccc2c1c(=O)c(C(=O)O)nn2-c1ccc(OC(F)(F)F)cc1 [Compound P27, 5-ethylsulfonyl-4-oxo-1-[4-(trifluoromethoxy)phenyl]cinnoline-3-carboxylic acid]
percentage damage caused to the plant, five-point scale, ECHCG [1]: 0 (0=0%)
percentage damage caused to the plant, five-point scale, SETFA (Setaria faberi (SETFA) [2]): 3 (3=41-60%)
percentage damage caused to the plant, five-point scale, AMARE [3]: 0 (0=0%)
percentage damage caused to the plant, five-point scale, ZEAMX (Zea mays (ZEAMX) [4]): 1 (1=10-20%)
percentage damage caused to the plant, five-point scale, IPOHE [5]: 0 (0=0%)
percentage damage caused to the plant, ECHCG (five-point scale) [6]: 2 (2=21-40%)
percentage damage caused to the plant, SETFA (five-point scale) (Setaria faberi (SETFA) [7]): 2 (2=21-40%)
percentage damage caused to the plant, ABUTH (five-point scale) [8]: 1 (1=10-20%)
percentage damage caused to the plant, AMARE (five-point scale) [9]: 0 (0=0%)
percentage damage caused to the plant, IPOHE (five-point scale) [10]: 0 (0=0%)
percentage damage caused to the plant, ZEAMX (five-point scale) (Zea mays (ZEAMX) [11]): 1 (1=10-20%)
percentage damage caused to the plant, five-point scale, ABUTH [12]: 0 (0=0%)

COC(=O)c1nn(-c2ccc(OC(F)(F)F)cc2)c2cc(OC)cc(SC)c2c1=O [Compound P56, methyl 7-methoxy-5-methylsulfanyl-4-oxo-1-[4-(trifluoromethoxy)phenyl]cinnoline-3-carboxylate]
percentage damage caused to the plant, five-point scale, ECHCG [1]: 0 (0=0%)
percentage damage caused to the plant, five-point scale, SETFA (Setaria faberi (SETFA) [2]): 0 (0=0%)
percentage damage caused to the plant, five-point scale, AMARE [3]: 0 (0=0%)
percentage damage caused to the plant, five-point scale, ZEAMX (Zea mays (ZEAMX) [4]): 0 (0=0%)
percentage damage caused to the plant, five-point scale, IPOHE [5]: 0 (0=0%)
percentage damage caused to the plant, ECHCG (five-point scale) [6]: 0 (0=0%)
percentage damage caused to the plant, SETFA (five-point scale) (Setaria faberi (SETFA) [7]): 0 (0=0%)
percentage damage caused to the plant, ABUTH (five-point scale) [8]: 0 (0=0%)
percentage damage caused to the plant, AMARE (five-point scale) [9]: 1 (1=10-20%)
percentage damage caused to the plant, IPOHE (five-point scale) [10]: 0 (0=0%)
percentage damage caused to the plant, ZEAMX (five-point scale) (Zea mays (ZEAMX) [11]): 0 (0=0%)
percentage damage caused to the plant, five-point scale, ABUTH [12]: 0 (0=0%)

CCOC(=O)c1nn(-c2ccc(Cl)cc2Cl)c2cccc(S(C)(=O)=O)c2c1=O [Compound P44, ethyl 1-(2,4-dichlorophenyl)-5-methylsulfonyl-4-oxo-cinnoline-3-carboxylate]
percentage damage caused to the plant, five-point scale, ECHCG [1]: 2 (2=21-40%)
percentage damage caused to the plant, five-point scale, SETFA (Setaria faberi (SETFA) [2]): 4 (4=61-80%)
percentage damage caused to the plant, five-point scale, AMARE [3]: 1 (1=10-20%)
percentage damage caused to the plant, five-point scale, ZEAMX (Zea mays (ZEAMX) [4]): 0 (0=0%)
percentage damage caused to the plant, five-point scale, IPOHE [5]: 0 (0=0%)
percentage damage caused to the plant, ECHCG (five-point scale) [6]: 4 (4=61-80%)
percentage damage caused to the plant, SETFA (five-point scale) (Setaria faberi (SETFA) [7]): 4 (4=61-80%)
percentage damage caused to the plant, ABUTH (five-point scale) [8]: 1 (1=10-20%)
percentage damage caused to the plant, AMARE (five-point scale) [9]: 1 (1=10-20%)
percentage damage caused to the plant, IPOHE (five-point scale) [10]: 1 (1=10-20%)
percentage damage caused to the plant, ZEAMX (five-point scale) (Zea mays (ZEAMX) [11]): 1 (1=10-20%)
percentage damage caused to the plant, five-point scale, ABUTH [12]: 0 (0=0%)

CC(C)(C)CCOC(=O)c1nn(-c2ccc(OC(F)(F)F)cc2)c2cccc(S(C)(=O)=O)c2c1=O [Compound P86, 3,3-dimethylbutyl 5-methylsulfonyl-4-oxo-1-[4-(trifluoromethoxy)phenyl]cinnoline-3-carboxylate]
percentage damage caused to the plant, five-point scale, ECHCG [1]: 5 (5=81-100%)
percentage damage caused to the plant, five-point scale, SETFA (Setaria faberi (SETFA) [2]): 4 (4=61-80%)
percentage damage caused to the plant, five-point scale, AMARE [3]: 0 (0=0%)
percentage damage caused to the plant, five-point scale, ZEAMX (Zea mays (ZEAMX) [4]): 1 (1=10-20%)
percentage damage caused to the plant, five-point scale, IPOHE [5]: 0 (0=0%)
percentage damage caused to the plant, ECHCG (five-point scale) [6]: 4 (4=61-80%)
percentage damage caused to the plant, SETFA (five-point scale) (Setaria faberi (SETFA) [7]): 4 (4=61-80%)
percentage damage caused to the plant, ABUTH (five-point scale) [8]: 0 (0=0%)
percentage damage caused to the plant, AMARE (five-point scale) [9]: 0 (0=0%)
percentage damage caused to the plant, IPOHE (five-point scale) [10]: 0 (0=0%)
percentage damage caused to the plant, ZEAMX (five-point scale) (Zea mays (ZEAMX) [11]): 0 (0=0%)
percentage damage caused to the plant, five-point scale, ABUTH [12]: 1 (1=10-20%)

CCOC(=O)c1nn(-c2ccc(OC(F)(F)F)cc2)c2cc(C)cc(S(C)(=O)=O)c2c1=O [Compound P9, ethyl 7-methyl-5-methylsulfonyl-4-oxo-1-[4-(trifluoromethoxy)phenyl]cinnoline-3-carboxylate]
percentage damage caused to the plant, five-point scale, ECHCG [1]: 4 (4=61-80%)
percentage damage caused to the plant, five-point scale, SETFA (Setaria faberi (SETFA) [2]): 4 (4=61-80%)
percentage damage caused to the plant, five-point scale, AMARE [3]: 1 (1=10-20%)
percentage damage caused to the plant, five-point scale, ZEAMX (Zea mays (ZEAMX) [4]): 1 (1=10-20%)
percentage damage caused to the plant, five-point scale, IPOHE [5]: 1 (1=10-20%)
percentage damage caused to the plant, ECHCG (five-point scale) [6]: 4 (4=61-80%)
percentage damage caused to the plant, SETFA (five-point scale) (Setaria faberi (SETFA) [7]): 3 (3=41-60%)
percentage damage caused to the plant, ABUTH (five-point scale) [8]: 1 (1=10-20%)
percentage damage caused to the plant, AMARE (five-point scale) [9]: 1 (1=10-20%)
percentage damage caused to the plant, IPOHE (five-point scale) [10]: 1 (1=10-20%)
percentage damage caused to the plant, ZEAMX (five-point scale) (Zea mays (ZEAMX) [11]): 1 (1=10-20%)
percentage damage caused to the plant, five-point scale, ABUTH [12]: 1 (1=10-20%)
